{"source": "ChEMBL document CHEMBL3751808", "about": "“Gambogic acid induces apoptotic cell death in T98G glioma cells” (Bioorg Med Chem Lett, 2016)", "key": {"T98G [1]": {"test_system": "T98G", "test": "Antiproliferative activity against human T98G cells after 24 hrs by EZ-Tox assay", "assay_type": "functional, cell-based"}, "T98G [2]": {"test_system": "T98G", "test": "Antiproliferative activity against human T98G cells assessed as cell viability after 72 hrs by MTT assay", "assay_type": "functional, cell-based"}, "T98G [3]": {"test_system": "T98G", "test": "Induction of apoptosis in human T98G cells assessed as increase of cytochrome-c protein level at 200 to 400 nM after 10 to 24 hrs by Western blot analysis", "assay_type": "functional, cell-based"}, "T98G [4]": {"test_system": "T98G", "test": "Induction of apoptosis in human T98G cells assessed as early-stage apoptotic cells at 400 nM after 24 hrs using annexin V/propidium iodide staining by FACS analysis", "assay_type": "functional"}, "T98G [5]": {"test_system": "T98G", "test": "Induction of apoptosis in human T98G cells assessed as increase of cleaved caspase-3 level at 200 to 400 nM after 10 to 24 hrs by Western blot analysis", "assay_type": "functional, cell-based"}, "T98G [6]": {"test_system": "T98G", "test": "Induction of apoptosis in human T98G cells assessed as necrotic cells at 400 nM after 24 hrs using annexin V/propidium iodide staining by FACS analysis", "assay_type": "functional"}, "T98G [7]": {"test_system": "T98G", "test": "Induction of apoptosis in human T98G cells assessed as increase of ROS level at 200 nM after 8 hrs using DCFH-DA staining by FACS analysis in presence of NAC (reference value: 2.4%)", "assay_type": "functional"}, "T98G [8]": {"test_system": "T98G", "test": "Induction of apoptosis in human T98G cells assessed as decrease in cell viability at 400 nM after 24 hrs using propidium iodide /Hoechst staining by FACS analysis in presence of NAC (reference value: 2.9%)", "assay_type": "functional"}, "T98G [9]": {"test_system": "T98G", "test": "Induction of apoptosis in human T98G cells assessed as increase of cleaved caspase-9 level at 200 to 400 nM after 10 to 24 hrs by Western blot analysis", "assay_type": "functional, cell-based"}, "T98G [10]": {"test_system": "T98G", "test": "Induction of apoptosis in human T98G cells assessed as increase of ROS level at 200 nM after 8 hrs using DCFH-DA staining by FACS analysis (reference value: 2.4%)", "assay_type": "functional"}, "T98G [11]": {"test_system": "T98G", "test": "Induction of apoptosis in human T98G cells assessed as decrease in cell viability at 200 nM after 24 hrs using propidium iodide /Hoechst staining by FACS analysis in presence of NAC (reference value: 2.9%)", "assay_type": "functional"}, "T98G [12]": {"test_system": "T98G", "test": "Induction of apoptosis in human T98G cells assessed as decrease in cell viability at 400 nM after 24 hrs using propidium iodide /Hoechst staining by FACS analysis (reference value: 2.9%)", "assay_type": "functional"}, "T98G [13]": {"test_system": "T98G", "test": "Induction of apoptosis in human T98G cells assessed as decrease of Bcl-2 level at 200 to 400 nM after 10 to 24 hrs by Western blot analysis", "assay_type": "functional, cell-based"}, "T98G [14]": {"test_system": "T98G", "test": "Induction of apoptosis in human T98G cells assessed as increase of ROS level at 400 nM after 8 hrs using DCFH-DA staining by FACS analysis in presence of NAC (reference value: 2.4%)", "assay_type": "functional"}, "T98G [15]": {"test_system": "T98G", "test": "Induction of apoptosis in human T98G cells assessed as increase of ROS level at 200 to 400 nM after 10 hrs using DCFH-DA staining by fluorescence microscopic analysis", "assay_type": "functional, cell-based"}, "T98G [16]": {"test_system": "T98G", "test": "Induction of apoptosis in human T98G cells assessed as increase of cleaved caspase-8 level at 200 to 400 nM after 10 to 24 hrs by Western blot analysis", "assay_type": "functional, cell-based"}, "T98G [17]": {"test_system": "T98G", "test": "Induction of apoptosis in human T98G cells assessed as increase of AIF level at 200 to 400 nM after 10 to 24 hrs by Western blot analysis", "assay_type": "functional, cell-based"}, "T98G [18]": {"test_system": "T98G", "test": "Induction of apoptosis in human T98G cells assessed as increase of cleaved PARP level at 200 to 400 nM after 10 to 24 hrs by Western blot analysis", "assay_type": "functional, cell-based"}, "T98G [19]": {"test_system": "T98G", "test": "Induction of apoptosis in human T98G cells assessed as early-stage apoptotic cells at 200 nM after 24 hrs using annexin V/propidium iodide staining by FACS analysis", "assay_type": "functional"}, "T98G [20]": {"test_system": "T98G", "test": "Induction of apoptosis in human T98G cells assessed as increase of ROS level at 400 nM after 8 hrs using DCFH-DA staining by FACS analysis (reference value: 2.4%)", "assay_type": "functional"}, "T98G [21]": {"test_system": "T98G", "test": "Induction of apoptosis in human T98G cells assessed as increase of Bax level at 200 to 400 nM after 10 to 24 hrs by Western blot analysis", "assay_type": "functional, cell-based"}, "T98G [22]": {"test_system": "T98G", "test": "Induction of apoptosis in human T98G cells assessed as decrease in cell viability at 200 nM after 24 hrs using propidium iodide /Hoechst staining by FACS analysis (reference value: 2.9%)", "assay_type": "functional"}, "T98G [23]": {"test_system": "T98G", "test": "Induction of apoptosis in human T98G cells assessed as decrease in cell viability after 24 hrs using propidium iodide /Hoechst staining by FACS analysis", "assay_type": "functional, cell-based"}, "T98G [24]": {"test_system": "T98G", "test": "Induction of apoptosis in human T98G cells assessed as late-stage apoptotic cells at 200 nM after 24 hrs using annexin V/propidium iodide staining by FACS analysis", "assay_type": "functional"}, "T98G [25]": {"test_system": "T98G", "test": "Induction of apoptosis in human T98G cells assessed as increase of ROS level at 200 to 400 nM after 10 hrs using DCFH-DA staining by fluorescence microscopic analysis in presence of NAC", "assay_type": "functional, cell-based"}, "T98G [26]": {"test_system": "T98G", "test": "Induction of apoptosis in human T98G cells assessed as necrotic cells at 200 nM after 24 hrs using annexin V/propidium iodide staining by FACS analysis", "assay_type": "functional"}, "T98G [27]": {"test_system": "T98G", "test": "Induction of apoptosis in human T98G cells assessed as late-stage apoptotic cells at 400 nM after 24 hrs using annexin V/propidium iodide staining by FACS analysis", "assay_type": "functional"}}, "note": "Calls of active or inactive are those of the source. The calls are words filed in the database; no cut-off is given here."}
{"smiles": "COc1cc(/C=C/C(=O)CC(=O)/C=C/c2ccc(O)c(OC)c2)ccc1O", "note": "[CURCUMIN]", "values": [{"measurement": "IC50", "setting": "T98G [1]", "result": 10, "unit": "µM"}, {"measurement": "IC50", "setting": "T98G [2]", "result": 25, "unit": "µM"}]}
{"smiles": "COc1cccc2c1C(=O)c1c(O)c3c(c(O)c1C2=O)C[C@@](O)(C(=O)CO)C[C@@H]3O[C@H]1C[C@H](N)[C@H](O)[C@H](C)O1", "note": "[DOXORUBICIN]", "values": [{"measurement": "IC50", "setting": "T98G [1]", "result": 0.5, "unit": "µM"}]}
{"smiles": "O=C(O[C@@H]1Cc2c(O)cc(O)cc2O[C@@H]1c1cc(O)c(O)c(O)c1)c1cc(O)c(O)c(O)c1", "note": "[EPIGALOCATECHIN GALLATE]", "values": [{"measurement": "IC50", "setting": "T98G [1]", "result": 166, "unit": "µM"}]}
{"smiles": "CC(C)=CCC[C@]1(C)C=Cc2c(O)c3c(c(CC=C(C)C)c2O1)O[C@]12C(=C[C@@H]4C[C@H]1C(C)(C)O[C@@]2(C/C=C(/C)C(=O)O)C4=O)C3=O", "note": "[GAMBOGIC ACID]", "values": [{"measurement": "Activity", "setting": "T98G [3]", "result": "Active"}, {"measurement": "Activity", "setting": "T98G [4]", "result": 12.6, "unit": "%"}, {"measurement": "Activity", "setting": "T98G [5]", "result": "Active"}, {"measurement": "Activity", "setting": "T98G [6]", "result": 27.6, "unit": "%"}, {"measurement": "Activity", "setting": "T98G [7]", "result": 2.8, "unit": "%"}, {"measurement": "Activity", "setting": "T98G [8]", "result": 6, "unit": "%"}, {"measurement": "Activity", "setting": "T98G [9]", "result": "Active"}, {"measurement": "Activity", "setting": "T98G [10]", "result": 38.5, "unit": "%"}, {"measurement": "Activity", "setting": "T98G [11]", "result": 5.8, "unit": "%"}, {"measurement": "Activity", "setting": "T98G [12]", "result": 76.6, "unit": "%"}, {"measurement": "Activity", "setting": "T98G [13]", "result": "Active"}, {"measurement": "Activity", "setting": "T98G [14]", "result": 2.6, "unit": "%"}, {"measurement": "Activity", "setting": "T98G [1]", "result": "Dose-dependent effect"}, {"measurement": "IC50", "setting": "T98G [1]", "result": "≤ 0.3", "unit": "µM"}, {"measurement": "Activity", "setting": "T98G [15]", "result": "Active"}, {"measurement": "Activity", "setting": "T98G [16]", "result": "Active"}, {"measurement": "Activity", "setting": "T98G [17]", "result": "Active"}, {"measurement": "Activity", "setting": "T98G [18]", "result": "Active"}, {"measurement": "Activity", "setting": "T98G [19]", "result": 32.3, "unit": "%"}, {"measurement": "Activity", "setting": "T98G [20]", "result": 36.5, "unit": "%"}, {"measurement": "Activity", "setting": "T98G [21]", "result": "Active"}, {"measurement": "Activity", "setting": "T98G [22]", "result": 33.4, "unit": "%"}, {"measurement": "Activity", "setting": "T98G [23]", "result": "Dose-dependent effect"}, {"measurement": "Activity", "setting": "T98G [24]", "result": 8.57, "unit": "%"}, {"measurement": "Activity", "setting": "T98G [25]", "result": "inactive"}, {"measurement": "Activity", "setting": "T98G [26]", "result": 4, "unit": "%"}, {"measurement": "Activity", "setting": "T98G [27]", "result": 13.7, "unit": "%"}]}
